Test system: Aedes aegypti
Test: In vitro Warm Body assay, mosquitoes landing on treated warm body
Type: in vivo
Method: (§1) The arthropod controlling effect according to the present invention is determined on mosquitoes using an adapted Warm Body assay as defined in Kröber T, Kessler S, Frei J, Bourquin M, Guerin P M. An in vitro assay for testing mosquito controlling compounds employing a warm body and carbon dioxide as a behavioral activator. J Am Mosq Control Assoc. 2010; 26:381-386.
(§2) The controlling effect according to the present invention is determined by testing the Warm Body assay against the yellow fever mosquito, Aedes aegypti Rockefeller strain. […] Observations of controlling efficacy were made on host-seeking females of uniform age, 5 to 10 days old selected as mentioned in the publication mentioned hereinabove. Tested hungry females had access to 10% sugar solution but were not blood-fed.
(§3) The published protocol has been adapted in not manually counting the landing mosquitoes but automatically using an automatic counting software, the switch from Anopheles gambiae to A. aegypti led to a decrease of mosquitoes' number placed in the tested cage due to the size difference (i.e. 30 mosquitoes instead of 50) and to an increase of lighting as A. aegypti is a diurnal mosquitoes (i.e. 150 lux instead of 4 lux).
as §2, with “A.” for “Aedes”
as §1, with “The” for “The arthropod”, “was assessed” for “is determined on mosquitoes”
as §3, with “Aedes” for “A.”
In this in-vitro assay the number of A. aegypti landing on a warm body treated with the tested stimuli was measured in order to assess the repellency effect. Three replicates were carried on the three different doses: 0.0016%, 0.04% and 1% in ethanol, using 25 A. aegypti 10-12 days old females per cage.
In this in-vitro assay, the number of Aedes aegypti landing on a warm body treated with the tested stimuli was measured in order to assess the repellency effect. Three replicates were carried on the three different doses: 0.0016%, 0.04% and 1% in ethanol.
In this in-vitro assay, the number of Aedes aegypti landing on a warm body treated with the tested stimuli was measured in order to assess the repellency effect. One replicate was carried at different doses ranging from 0.0016% up to 1% in ethanol.

[1] = Aedes aegypti, read-out: decrease of landings

| Compound | number of mosquitoes landed on the Warm Body (0.0016% in ethanol (Table 6)) | number of mosquitoes landed on the Warm Body (0.04% in ethanol (Table 6)) | number of mosquitoes landed on the Warm Body (1% in ethanol (Table 6)) | other results |
| --- | --- | --- | --- | --- |
| C[C@@H]1O[C@H](C)[C@@H]2Cc3ccccc3[C@@H]2O1 (racemic) [(2RS,4RS,4ASR,9BRS)-2,4-dimethyl-4,4a,5,9b-tetrahydroindeno[1,2-d][1,3]dioxine] | 11 | 6 | 2 | – |
| Cc1ccc2c(c1)C[C@]1(C)COC(C)(C)O[C@H]21 (racemic) [(4aRS,9bRS)-2,2,4a,7-tetramethyl-4,4a,5,9b-tetrahydroindeno[1,2-d][1,3]dioxine] | 51 | 44 | 8 | – |
| (2RS,4aRS,9bRS)-2,4a,7-trimethyl-4,4a,5,9b-tetrahydroindeno[1,2-d][1,3]dioxine + (2RS,4aSR,9bSR)-2,4a,7-trimethyl-4,4a,5,9b-tetrahydroindeno[1,2-d][1,3]dioxine | 30 | 0 | 0 | number of mosquitoes landed on the Warm Body (0.04% in ethanol (Table 6), listed as blend of (2RS,4aRS,9bRS)-2,4a,7-trimethyl-4,4a,5,9b-tetrahydroindeno[1,2-d][1,3]): no mosquito landed at all; number of mosquitoes landed on the Warm Body (1% in ethanol (Table 6), listed as blend of (2RS,4aRS,9bRS)-2,4a,7-trimethyl-4,4a,5,9b-tetrahydroindeno[1,2-d][1,3]): zero |
| Cc1ccc2c(c1)[C@H]1OCOC[C@@]1(C)C2 (racemic) [(4aRS,9bRS)-4a,8-dimethyl-4,4a,5,9b-tetrahydroindeno[1,2-d][1,3]dioxin] | 34 | 20 | 5 | – |
| C[C@@H]1OC[C@]2(C)Cc3ccccc3[C@@H]2O1 (racemic) [(2RS,4aSR,9bSR)-2,4a-dimethyl-4,4a,5,9b-tetrahydroindeno[1,2-d][1,3]dioxin] | 34 | 18 | 6 | – |
| Cc1ccc2c(c1)C[C@]1(C)COCO[C@H]21 (racemic) [(4aRS,9bRS)-4a,7-dimethyl-4,4a,5,9b-tetrahydroindeno[1,2-d][1,3]dioxine] | 17 | – | – | – |
| CCc1ccc2c(c1)CC(C)(CO)C2 (stereo not drawn) [5-ethyl-2-methyl-2-indanmethanol] | – | – | – | pest or weed control at 0.04 % [1]: ~70% |
| Cc1ccc2c(c1)[C@@H]1O[C@H](C)OC[C@]1(C)C2 [(2R,4aS,9bS)-2,4a,8-trimethyl-4,4a,5,9b-tetrahydroindeno[1,2-d][1,3]dioxin] | 40 | 8 | 10 | – |
| Cc1ccc2c(c1)CC(C)(C(=O)O)C2 (stereo not drawn) [2,5-dimethyl-2,3-dihydro-1H-indene-2-carboxylic acid] | – | – | – | pest or weed control at 0.0016 % [1]: 4 to 29% |
| C[C@H]1O[C@@H]2c3ccccc3C[C@@H]2[C@@H](C)O1 (racemic) [(2RS,4RS,4ARS,9BSR)-2,4-dimethyl-4,4a,5,9b-tetrahydroindeno[1,2-d][1,3]dioxine] | 17 | 13 | – | – |
| (2RS,4aSR,9bRS)-2-ethyl-4,4a,5,9b-tetrahydroindeno[1,2-d][1,3]dioxine + (2RS,4aRS,9bSR)-2-ethyl-4,4a,5,9b-tetrahydroindeno[1,2-d][1,3]dioxine | 43 | 6 | 5 | – |
| Cc1ccc2c(c1)C(O)C(C)(CO)C2 (racemic) [2-(hydroxymethyl)-2,6-dimethyl-2,3-dihydro-1H-inden-1-ol] | – | – | – | repellent effect with increasing amount of stimuli (in words) (0.0016%, 0.04% and 1% in ethanol (FIG. 10)): low decrease of landing |
| Cc1ccc2c(c1)C1OC(=O)OCC1(C)C2 (stereo not drawn) [4a,8-dimethyl-indano[1,2-d]-1,3-dioxan-2-one] | – | – | – | decrease of landings (0.04% in ethanol (FIG. 8)): ~70% |
| (2RS,4aSR,9bRS)-2,8-dimethyl-4,4a,5,9b-tetrahydroindeno[1,2-d][1,3]dioxine + 2RS,4aRS,9bSR)-2,8-dimethyl-4,4a,5,9b-tetrahydroindeno[1,2-d][1,3]dioxine | 38 | 14 | 4 | – |
